Calls of active or inactive are those of the source. The rule behind the calls is not given here.
Legend:
[1] = target: T1, Peroxisome proliferator-activated receptor alpha (Homo sapiens, UniProt Q07869); type: functional
T1 sequence (Q07869 whole entry): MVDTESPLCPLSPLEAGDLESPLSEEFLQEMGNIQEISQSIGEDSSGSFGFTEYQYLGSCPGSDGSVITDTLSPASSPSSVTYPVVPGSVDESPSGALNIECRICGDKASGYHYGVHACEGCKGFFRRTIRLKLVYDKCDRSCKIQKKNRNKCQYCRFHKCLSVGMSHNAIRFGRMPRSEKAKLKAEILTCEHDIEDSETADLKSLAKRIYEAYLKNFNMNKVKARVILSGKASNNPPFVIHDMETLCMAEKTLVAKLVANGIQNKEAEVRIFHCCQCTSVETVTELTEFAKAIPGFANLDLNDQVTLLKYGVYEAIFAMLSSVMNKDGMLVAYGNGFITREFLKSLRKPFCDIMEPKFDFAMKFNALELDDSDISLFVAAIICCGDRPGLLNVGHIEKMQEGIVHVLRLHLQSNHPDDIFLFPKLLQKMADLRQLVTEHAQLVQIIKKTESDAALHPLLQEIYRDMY

[2] = target: T2, Peroxisome proliferator-activated receptor delta (Homo sapiens, UniProt Q03181)
T2 sequence (Q03181 whole entry): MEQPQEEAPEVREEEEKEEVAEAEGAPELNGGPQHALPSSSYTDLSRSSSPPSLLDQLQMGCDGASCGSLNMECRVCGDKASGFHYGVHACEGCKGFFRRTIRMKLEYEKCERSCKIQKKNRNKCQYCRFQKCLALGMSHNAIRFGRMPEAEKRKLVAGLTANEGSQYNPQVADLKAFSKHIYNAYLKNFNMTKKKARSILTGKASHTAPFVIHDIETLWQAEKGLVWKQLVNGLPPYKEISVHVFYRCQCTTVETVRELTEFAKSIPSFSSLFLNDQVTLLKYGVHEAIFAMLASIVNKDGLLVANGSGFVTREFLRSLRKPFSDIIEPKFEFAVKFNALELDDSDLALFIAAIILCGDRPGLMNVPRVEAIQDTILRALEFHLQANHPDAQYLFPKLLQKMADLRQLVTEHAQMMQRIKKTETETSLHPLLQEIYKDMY

[3] = target: T1, Peroxisome proliferator-activated receptor alpha
[4] = target: T3, Peroxisome proliferator-activated receptor gamma (Homo sapiens, UniProt P37231); type: functional
T3 sequence (P37231 whole entry): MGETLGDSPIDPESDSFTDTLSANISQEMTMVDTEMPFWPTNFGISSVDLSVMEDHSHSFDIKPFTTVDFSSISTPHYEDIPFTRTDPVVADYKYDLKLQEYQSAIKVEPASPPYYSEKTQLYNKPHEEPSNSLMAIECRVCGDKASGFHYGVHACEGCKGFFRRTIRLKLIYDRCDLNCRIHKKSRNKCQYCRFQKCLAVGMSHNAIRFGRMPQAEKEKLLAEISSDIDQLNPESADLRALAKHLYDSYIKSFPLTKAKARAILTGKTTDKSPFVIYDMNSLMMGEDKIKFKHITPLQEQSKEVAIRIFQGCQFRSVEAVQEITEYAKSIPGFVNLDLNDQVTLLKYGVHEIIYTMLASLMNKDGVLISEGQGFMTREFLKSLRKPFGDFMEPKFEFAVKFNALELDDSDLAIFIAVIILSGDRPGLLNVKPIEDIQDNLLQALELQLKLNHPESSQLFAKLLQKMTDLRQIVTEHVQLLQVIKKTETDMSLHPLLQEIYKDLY

[5] = target: T1, Peroxisome proliferator-activated receptor alpha; type: functional; remark: listed apart in the source
[6] = target: T4, Peroxisome proliferator-activated receptor delta (Homo sapiens) (UniProt Q03181)
T4 sequence (whole entry): T2 sequence (Q03181 whole entry)

[7] = target: T5, Peroxisome proliferator-activated receptor gamma (Homo sapiens) (UniProt P37231)
T5 sequence (whole entry): T3 sequence (P37231 whole entry)

Mus musculus [8] = organism: Mus musculus; assay: animal or person; type: functional
Mus musculus [9] = organism: Mus musculus; type: functional
Mus musculus [10] = organism: Mus musculus; assay: animal or person; type: functional; remark: listed apart in the source
Mus musculus [11] = organism: Mus musculus; assay: animal or person; type: functional; details: Serum
[12] = target: T4, Peroxisome proliferator-activated receptor delta (Homo sapiens); remark: listed apart in the source

Row | Compound | EC50 [1] [nM] | IC50 [2] [nM] | IC50 [3] [nM] | also measured
1 | CCCn1c(CCCc2ccc(OC(C)(C)C(=O)O)cc2)nn(Cc2cccc(OC)c2)c1=O | 31 | 2000 | 19 | 
2 | CCCCCCn1c(CCc2ccc(OC(C)(C)C(=O)O)cc2)nn(Cc2cccc(OC)c2)c1=O | 2200 |  |  | EC50 [4]: 2600 nM
3 | CC(C)(Oc1ccc(C(=O)c2ccc(Cl)cc2)cc1)C(=O)O [FENOFIBRIC ACID] |  |  | 24000 | EC50 [5]: 13000 nM; NB [6]: inactive; NB [7]: inactive
4 | Cc1ccc(Cn2nc(CCCc3ccc(OC(C)(C)C(=O)O)cc3)nc2O)cc1 [LY-518674] |  | 3800 |  | ED50 (Mus musculus [8]): 0.1 mg/kg; Increase (Mus musculus [9]): 210%; ED50 (Mus musculus [10]): 0.3 mg/kg
5 | CC(C)OC(=O)C(C)(C)Oc1ccc(C(=O)c2ccc(Cl)cc2)cc1 [FENOFIBRATE] |  |  |  | ED50 (Mus musculus [11]): 79 mg/kg; Increase (Mus musculus [9]): 120%; ED50 (Mus musculus [10]): 110 mg/kg
6 | Cc1ccc(Cn2nc(CCCc3ccc(OC(C)(C)C(=O)O)cc3)n(CCO)c2=O)cc1 | 88 | 4100 | 27 | 
7 | Cc1ccc(Cn2nc(CCCc3ccc(OC(C)(C)C(=O)O)cc3)n(CC(=O)O)c2=O)cc1 | 2700 |  | 960 | NB [12]: inactive
8 | CCCn1c(CCc2ccc(OC(C)(C)C(=O)O)cc2)nn(Cc2ccc(C)cc2)c1=O | 2800 |  |  | EC50 [4]: 2900 nM
9 | CCCn1c(CCCc2ccc(OC(C)(C)C(=O)O)cc2)nn(C(C)c2ccccc2)c1=O (configuration not stated) | 220 | 1500 | 220 | 

Source: ChEMBL document CHEMBL1145902, “Design and synthesis of a potent and selective triazolone-based peroxisome proliferator-activated receptor alpha agonist” (J Med Chem, 2003)
